Laboratory results reported in patent EP0186181A2, “Uses for enprostil” (SYNTEX (U.S.A.) INC., priority 1984, dated 1986).
Where two headings read alike, the source gives them in different places.

Legend:
insulin levels = conditions: cited from earlier work
serum cholesterol [1] = test: Effect of orally administered enprostil on serum cholesterol, five weeks (Example I); assay type: in vivo, human
Protocol: A group of 20 patients with high cholesterol baseline were orally given 70 µg enprostil twice daily. […] The median change for the group was 16 percent reduction, with 60 percent of the patients tested showing a significant reduction in serum cholesterol.
A second group of 16 patients with a high cholesterol baseline were given 35 µg enprostil twice daily.
A third group of 13 individuals were given a placebo. […] The median change was a 2 percent increase in cholesterol.

serum cholesterol [2] = test: Cholesterol reduction study, 7 to 70 µg BID versus placebo (Example II, Table 1); assay type: in vivo, human
[3] = system: serum cholesterol, LDL cholesterol, HDL cholesterol, apoproteins; test: 9-day placebo controlled cross-over study in normal subjects: cholesterol, LDL, HDL, apoproteins (Table 2); assay type: in vivo, human; set-up: Mean reduction of cholesterol / Mean reduction of LDL cholesterol / Mean reduction of HDL cholesterol / Mean reduction of apoprotein A / Mean reduction of apoprotein B: concentration or dose not given beside the values; conditions: 9-day cross-over
Protocol: To further clarify the nature of these changes in a prospective manner, normal subjects were dosed with enprostil for periods ranging from 8 days up to 44 days in duration.
In a 9-day placebo controlled cross-over study, with each subject serving as their own control, the mean reduction in cholesterol, Low Density Lipoprotein (LDL) cholesterol, and High Density Lipoprotein (HDL) cholesterol are shown in Table 2.
These findings are surprising since the subjects in this study were normocholesterolemic at baseline (that is serum cholesterol under 250 mg/dl) and were on a free diet with no attempt to regulate dietary cholesterol intake.

serum cholesterol [4] = test: 44 day dosing placebo controlled trial, serum cholesterol (Example III); assay type: in vivo, human
Protocol: In a 44 day dosing study 20 subject participated in a placebo controlled trial. Ten subjects received enprostil and the remainder received placebo. […] Similarly there was a 46% reduction in their LDL cholesterol from 140 mg/dl to 75 mg/dl. This subject was normocholesterolemic at baseline and no dietary manipulation was attempted.

serum GIP = test: Serum GIP after meal stimulus, double blind crossover study (Example IV); assay type: in vivo, human; conditions: 70 µg orally 30 minutes before meal; placebo showed a four fold increase
Protocol: Serum GIP levels are known to increase after meals.
Groups of 10 subjects participated in a double blind, crossover study. Either the placebo or 70 µg enprostil was orally given 30 minutes before meal time and levels of GIP were measured.

[5] = system: serum insulin and glucose; test: Serum insulin and glucose after meal, double blind crossover study (Example V); assay type: in vivo, human; conditions: orally 30 minutes before meal
Protocol: A group of 10 subjects participated in a double blind crossover study. Either a placebo or enprostil was orally given 30 minutes before meal time and levels of insulin and glucose were measured after the meal.

[6] = system: serum insulin and glucose; test: Eight-day crossover study with standard breakfast: serum glucose, insulin, GIP (Example VI); assay type: in vivo, human; conditions: 70 µg orally
Protocol: Eight healthy male subject received either 70 µg enprostil per day or placebo for eight days followed by a washout period of one week and a subsequent second eight-day administration during which they received the opposite drug regime.
On day 1 and day 8 of each study period the patients reported to the clinical studies unit fasting and were administered 70 µg of enprostil orally in a glass of water. Thirty minutes later they were administered a standard breakfast and blood samples were drawn at -30, just prior to enprostil administration, 0, at the time of enprostil administration, 15, 30, 60, 90, 120 and 180 minutes.

serum xylose = test: Oral d-xylose absorption, 10-day placebo controlled cross-over (Example VII); assay type: in vivo, human; conditions: 70 µg enprostil per day, 5 g d-xylose orally
Protocol: (§1) 10 normal subjects participated in a 10-day placebo controlled cross-over receiving either placebo or […] enprostil per day. On day 1 and day 9 of each study phase they orally received 5 g of d-xylose, a sugar not normally metabolized in man. Blood measurements for serum xylose were made at -30, 0, +30, 60, 120, 180, 240, and 300 minutes following ingestion of xylose. On day 2 and day 10 of each study phase, the subjects received a 25 g intravenous glucose tolerance test, 30 minutes following enprostil administration.

serum glucose [7] = test: 25 g intravenous glucose tolerance test (Example VII); assay type: in vivo, human; conditions: 30 minutes following enprostil administration, day 2 and day 10
Protocol: as §1

serum glucose [8] = test: Serum glucose after standard breakfast, study lasting up to 44 days (Example VIII); assay type: in vivo, human; conditions: 35 µg BID, standard breakfast 30 minutes after dose
Protocol: 20 subjects participated in a study lasting up to 44 days. On day -8, all 20 subjects received a placebo capsule followed 30 minutes later by a standard breakfast with serial blood measurements. Eight days later all 20 subjects were randomized to either enprostil […] BID or placebo and continued dosing for a period of 30 days. On days 1, 8, and 30, they were given enprostil followed 30 minutes later by a standard breakfast with serial blood measurements.

[9] = administered by tube to the duodenum
[10] = 35 µg twice daily, of 16 patients
[11] = 70 µg twice daily, of 20 patients
[12] = normocholesterolemic subjects, free diet
[13] = of nine subjects who received enprostil
[14] = subject number 120, from 140 mg/dl

CCCCC[C@](C)(O)/C=C/[C@H]1[C@H](O)CC(=O)[C@@H]1C/C=C\CCCC(=O)OC [15S, 15 methyl PGE2 methyl ester]
insulin levels (insulin levels; [9]): lowered insulin levels | serum glucose levels (insulin levels; [9]): no change | time to peak serum glucose levels (insulin levels; intraduodenally or intravenously): no change | glucose levels (insulin levels; intravenous administration): without affecting glucose levels | insulin levels (insulin levels; intravenous administration): lowered insulin levels

COC(=O)CCC=C=CC[C@H]1C(=O)C[C@@H](O)[C@@H]1/C=C/[C@@H](O)COc1ccccc1 [enprostil]
patients showing serum cholesterol reduction (serum cholesterol [1]; 35 µg twice daily, 16 patients): 56% | median change (reduction in serum cholesterol) (serum cholesterol [1]; 35 µg twice daily, 16 patients with high cholesterol baseline): eleven | number of patients showing greater than 10 percent serum cholesterol reduction (serum cholesterol [1]; [10]): eight | number of patients showing greater than 25 percent reduction in serum cholesterol (serum cholesterol [1]; [10]): one | number of patients showing no change in serum cholesterol (serum cholesterol [1]; [10]): seven | patients tested showing a significant reduction in serum cholesterol (serum cholesterol [1]; 70 µg twice daily orally, 20 patients): 60% | median change for the group (reduction in serum cholesterol) (serum cholesterol [1]; 70 µg twice daily orally, 20 patients with high cholesterol baseline): 16% | number of patients showing greater than 10 percent reduction in serum cholesterol (serum cholesterol [1]; [11]): eleven | number of patients showing greater than 25 percent reduction in serum cholesterol (serum cholesterol [1]; [11]): one | number of patients showing no change in serum cholesterol (serum cholesterol [1]; [11]): eight | Cholesterol % decrease (combined 2-12 week of dosing) (serum cholesterol [2]; 7 µg BID, 9 subjects): 67% | Median % change (cholesterol) (serum cholesterol [2]; 7 µg BID, 9 subjects): -11% | Cholesterol % decrease (combined 2-12 week of dosing) (serum cholesterol [2]; 35 µg BID, 28 subjects): 64% | Median % change (cholesterol) (serum cholesterol [2]; 35 µg BID, 28 subjects): -13% | Cholesterol % decrease (combined 2-12 week of dosing) (serum cholesterol [2]; 70 µg BID, 28 subjects): 64% | Median % change (cholesterol) (serum cholesterol [2]; 70 µg BID, 28 subjects): -17% | change in total triglycerides [3]: essentially no change | Mean reduction of HDL cholesterol [3, 12]: -9.2% | Mean reduction of LDL cholesterol [3, 12]: -21.0% | Mean reduction of apoprotein A [3, 12]: -1.8% | Mean reduction of apoprotein B [3, 12]: -16.0% | Mean reduction of cholesterol [3, 12]: -15.0% | number of individuals with a reduction in total and LDL cholesterol throughout the entire 44 day period (serum cholesterol [4]; [13]): Three | number of subjects showing a reduction of total cholesterol by 16 days (serum cholesterol [4]; [13]): Six | reduction of total serum cholesterol (serum cholesterol [4]; subject number 120, day 44 versus mean baseline of 208 mg/dl): 43% | LDL cholesterol after dosing (serum cholesterol [4]; [14]): 75 mg/dL | reduction in LDL cholesterol (serum cholesterol [4]; [14]): 46% | total serum cholesterol at day 44 (serum cholesterol [4]; subject number 120, mean baseline 208 mg/dl): 123 mg/dL | increase in serum GIP 60 minutes after the meal stimulus (serum GIP): no increase | raise in glucose levels after the meal [5]: no statistically or clinically significant raise | increase of insulin levels after the meal ([5]; placebo five fold): two | serum GIP ([6]; both study days): essentially complete inhibition | serum insulin concentrations for each time point ([6]; day 1 and 8): marked reduction | reduction of area under the serum glucose by time curve compared to the placebo phase ([6]; day 1 and day 8): 15-20% | reduction in the amount of xylose excreted over 5 hours (serum xylose): 30% | peak serum xylose levels (serum xylose; days 1 and 9): marked suppression and delay | amount of xylose excreted over 5 hours (serum xylose; versus 1.8g): 1.3 g | serum glucose by time curves following intravenous glucose administration, versus placebo (serum glucose [7]): no marked differences | peak blood glucose levels versus placebo (serum glucose [8]): substantially reduced | time of appearance of peak blood glucose levels (serum glucose [8]; delay from approximately 60 minutes): ~90 min
